The text below walks through data of patent US20260042753A1 (Merck Patent GmbH, priority 2019, published 2026).

One test concerns the target c-Kit(V654A) (Homo sapiens, UniProt P10721, V654A). Nature of the test: c-Kit(V654A) assay. Type of test: biochemical. The conditions noted are these: Table 1; 200 μM ATP. The protocol:
c-Kit(V654A) (N-terminal GST-tagged, recombinant human c-Kit, amino acids 544-end containing the V654A mutation) is incubated with 8 mM MOPS pH 7.0, 0.2 mM EDTA, 250 μM GGMEDIYEFMGGKKK, 10 mM MgAcetate and [gamma-33P-ATP](specific activity approx. 500 cpm/pmol, concentration 200 μM). The reaction is initiated by the addition of the MgATP mix. After incubation for 40 minutes at room temperature, the reaction is stopped by the addition of 3% phosphoric acid solution. 10 μL of the reaction is then spotted onto a P30 filtermat and washed three times for 5 minutes in 75 mM phosphoric acid and once in methanol prior to drying and scintillation counting.

In test [1] the target is mutant cKIT (560-576 and V654A) in GIST430/654 cell line (Homo sapiens (Human), UniProt P10721, DEL560-576/V654A). Nature of the test: Cellular testing of cKIT mutant inhibitors: phospho-Y307-cKIT Luminex assay in GIST430/654 cells. It counts as cell-based. Conditions: Table 1; cKIT autophosphorylation, compounds 45 min; read-out: GIST 430/654 IC50. On the procedure:
Assay Principle for Cellular Testing of cKIT Mutant Inhibitors
The GIST430/654 cell line expressing mutated constitutively active cKIT receptor tyrosine kinase ([…]560-576 and V654A) was employed for assessing cellular potency of compounds. Cellular activity of mutant cKIT was determined by the degree of cKIT autophosphorylation at tyrosine 307 using a Luminex-based bead assay. GIST430/654 cells were plated with 25,000 cells per well of a 96-well plate in 100 μl medium (85% IMDM/15% FCS supplemented with 100 nM Imatinib). At the following day compounds were added in a serial dilution for 45 min. Then, cells were lysed with 90 μl lysis buffer (20 mM Hepes pH 7.5, 200 mM NaCl, 1.5 mM MgCl2×6H2O, 0.4 mM EDTA, 1% Triton-X-100, 1% Phosphatase-Inhibitor II, 20 mM D-Glycerolphosphat, 0.1% Protease-Inhibitor Cocktail III, 0.01% Benzonase) und lysates were cleared by centrifugation through a 96-well filter plate (0.65 μm). Samples were incubated with Luminex-beads which were coupled with an anti-total cKIT antibody overnight at 4° C. under gentle agitation. For detection of phospho-Y307-cKIT a phosphospecific antibody and a species-specific PE-labelled secondary antibody were added. The amount of phospho-Y307-cKIT was determined in a Luminex 200 instrument measuring 100 events per well within 60 seconds.
Counts from samples treated with compounds were calculated as percent of control from solvent treated (0.3% DMSO) samples. Dose-response curves were fitted and IC50 values were determined using Genedata Screener software.

Sequence of mutant cKIT (560-576 and V654A) in GIST430/654 cell line (P10721 other isoform, or with tags, fused parts or gaps V654A/del 1-25/del 560-576 limits assumed): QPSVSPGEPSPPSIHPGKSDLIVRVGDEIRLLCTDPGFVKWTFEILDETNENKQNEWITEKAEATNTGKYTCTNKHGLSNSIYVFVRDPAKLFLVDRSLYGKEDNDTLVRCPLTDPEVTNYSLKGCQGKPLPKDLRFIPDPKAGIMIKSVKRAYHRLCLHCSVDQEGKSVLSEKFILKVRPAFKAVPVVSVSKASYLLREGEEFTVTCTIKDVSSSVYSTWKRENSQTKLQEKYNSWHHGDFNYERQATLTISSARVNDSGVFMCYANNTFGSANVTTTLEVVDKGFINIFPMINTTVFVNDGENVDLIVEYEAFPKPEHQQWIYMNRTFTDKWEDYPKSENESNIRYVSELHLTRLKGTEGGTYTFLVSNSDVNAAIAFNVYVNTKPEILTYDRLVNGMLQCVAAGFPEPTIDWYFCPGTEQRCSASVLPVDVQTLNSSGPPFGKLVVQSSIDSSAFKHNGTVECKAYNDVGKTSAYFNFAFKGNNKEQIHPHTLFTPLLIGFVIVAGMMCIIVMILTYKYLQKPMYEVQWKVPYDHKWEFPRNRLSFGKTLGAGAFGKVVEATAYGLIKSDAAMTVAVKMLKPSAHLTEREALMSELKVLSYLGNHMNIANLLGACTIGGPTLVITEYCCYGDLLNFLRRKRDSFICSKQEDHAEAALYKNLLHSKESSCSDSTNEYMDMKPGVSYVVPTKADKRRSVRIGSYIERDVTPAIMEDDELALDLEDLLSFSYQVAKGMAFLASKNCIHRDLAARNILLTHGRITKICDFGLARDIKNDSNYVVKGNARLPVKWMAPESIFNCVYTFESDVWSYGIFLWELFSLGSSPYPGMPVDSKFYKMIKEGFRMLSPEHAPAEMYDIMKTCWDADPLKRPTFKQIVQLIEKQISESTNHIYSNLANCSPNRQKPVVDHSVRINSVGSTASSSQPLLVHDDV

For `C[C@H]1CN(C)CCN1C(=O)c1ccc(-c2cc(-c3n[nH]c4cc(-c5cnn(C)c5)ccc34)on2)cc1` [A9, 3-(3-{4-[(2S)-2,4-dimethylpiperazine-1-carbonyl]phenyl}-1,2-oxazol-5-yl)-6-(1-methyl-1H-pyrazol-4-yl)-1H-indazole], the figures for the IC50 (against c-Kit(V654A); in test [1]) were 8.8 nM and 130 nM, respectively.
The matching figures for `COCCOc1cc2[nH]nc(-c3cc(-c4ccc(C(=O)N5CCN(C)C[C@@H]5C)cc4)on3)c2cc1Cl` [A10, 5-chloro-3-(5-{4-[(2S)-2,4-dimethylpiperazine-1-carbonyl]phenyl}-1,2-oxazol-3-yl)-6-(2-methoxyethoxy)-1H-indazole]: 1.6 nM and 180 nM.
The matching figures for `COCCOc1cc2[nH]nc(-c3cc(-c4ccc(C(=O)N5CCN(C)C[C@@H]5C)cc4)on3)c2cc1C#N` [A11, 3-(5-{4-[(2S)-2,4-dimethylpiperazine-1-carbonyl]phenyl}-1,2-oxazol-3-yl)-6-(2-methoxyethoxy)-1H-indazole-5-carbonitrile]: 2.4 nM and 170 nM.
For `COCCOc1cc2[nH]nc(-c3cc(-c4ccc(C(=O)N(C)C)cc4)no3)c2cc1Cl` [A12, 4-{5-[5-chloro-6-(2-methoxyethoxy)-1H-indazol-3-yl]-1,2-oxazol-3-yl}-N,N-dimethylbenzamide], the IC50 at c-Kit(V654A) amounted to 0.91 nM; in test [1] it was 160 nM.
Taken in the same sequence, the figures for `COCCOc1cc2[nH]nc(-c3cc(-c4ccc(C)nc4)no3)c2cc1Cl` [A13, 5-chloro-6-(2-methoxyethoxy)-3-[3-(6-methylpyridin-3-yl)-1,2-oxazol-5-yl]-1H-indazole] were 11 nM and 300 nM.
Taken in the same sequence, the figures for `COCCOc1cc2[nH]nc(-c3cc(-c4ccc(-n5cncn5)cc4)no3)c2cc1Cl` [A14, 5-chloro-6-(2-methoxyethoxy)-3-{3-[4-(1H-1,2,4-triazol-1-yl)phenyl]-1,2-oxazol-5-yl}-1H-indazole] were 8.8 nM and 510 nM.
For `COCCOc1cc2[nH]nc(-c3cc(-c4ccc(S(C)(=O)=O)cc4)no3)c2cc1Cl` [A15, 5-chloro-3-[3-(4-methanesulfonylphenyl)-1,2-oxazol-5-yl]-6-(2-methoxyethoxy)-1H-indazole], the IC50 against c-Kit(V654A) turned out to be 5.8 nM; in test [1] it was 240 nM.
Taken in the same sequence, the figures for `COCCOc1cc2[nH]nc(-c3cc(-c4ccc(S(C)(=O)=O)cc4)no3)c2cc1F` [A16, 5-fluoro-3-[3-(4-methanesulfonylphenyl)-1,2-oxazol-5-yl]-6-(2-methoxyethoxy)-1H-indazole] were 4.8 nM and 94 nM.
The matching figures for `COCCOc1cc2[nH]nc(-c3cc(-c4ccc(NC(C)=O)cc4)no3)c2cc1Cl` [A17, N-(4-{5-[5-chloro-6-(2-methoxyethoxy)-1H-indazol-3-yl]-1,2-oxazol-3-yl}phenyl)acetamide]: 5.3 nM and 130 nM.
Taken in the same sequence, the figures for `COCCOc1cc2[nH]nc(-c3cc(-c4ccc(NC(C)=O)cc4)no3)c2cc1F` [A18, N-(4-{5-[5-fluoro-6-(2-methoxyethoxy)-1H-indazol-3-yl]-1,2-oxazol-3-yl}phenyl)acetamide] were 8.2 nM and 160 nM.
In the case of `COCCOc1cc2[nH]nc(-c3cc(-c4ccc(C(=O)N(C)C)cc4)no3)c2cc1F` [A20, 4-{5-[5-fluoro-6-(2-methoxyethoxy)-1H-indazol-3-yl]-1,2-oxazol-3-yl}-N,N-dimethylbenzamide], the figures for the IC50 (at c-Kit(V654A); in test [1]) were 1.7 nM and 48 nM, respectively.
Taken in the same sequence, the figures for `COCCOc1cc2[nH]nc(-c3cc(-c4ccc(-n5cncn5)cc4)no3)c2cc1F` [A21, 5-fluoro-6-(2-methoxyethoxy)-3-{3-[4-(1H-1,2,4-triazol-1-yl)phenyl]-1,2-oxazol-5-yl}-1H-indazole] were 12 nM and 570 nM.
On to `COCCOc1cc2[nH]nc(-c3cc(-c4ccc(C)nc4)no3)c2cc1F` [A22, 5-fluoro-6-(2-methoxyethoxy)-3-[3-(6-methylpyridin-3-yl)-1,2-oxazol-5-yl]-1H-indazole], for which the IC50 against c-Kit(V654A) worked out at 32 nM; in test [1] it was 2200 nM.
Taken in the same sequence, the figures for `COCCNC(=O)c1ccc2c(-c3cc(-c4ccc(C(=O)N(C)C)cc4)no3)n[nH]c2c1` [A25, 3-{3-[4-(dimethylcarbamoyl)phenyl]-1,2-oxazol-5-yl}-N-(2-methoxyethyl)-1H-indazole-6-carboxamide] were 30 nM and 5700 nM.
Taken in the same sequence, the figures for `COCCOc1cc2[nH]nc(-c3cc(-c4ccc(C(=O)N5CC(F)C5)cc4)no3)c2cc1F` [A26, 5-fluoro-3-{3-[4-(3-fluoroazetidine-1-carbonyl)phenyl]-1,2-oxazol-5-yl}-6-(2-methoxyethoxy)-1H-indazole] were 2.1 nM and 45 nM.
Taken in the same sequence, the figures for `COCCOc1cc2[nH]nc(-c3cc(-c4ccc(C(=O)N5CC[C@@H](F)C5)cc4)no3)c2cc1F` [A27, 5-fluoro-3-(3-{4-[(3R)-3-fluoropyrrolidine-1-carbonyl]phenyl}-1,2-oxazol-5-yl)-6-(2-methoxyethoxy)-1H-indazole] were 1.2 nM and 57 nM.
In the case of `COCCOc1cc2[nH]nc(-c3cc(-c4ccc(C(=O)N5CC(C#N)C5)cc4)no3)c2cc1F` [A28, 1-(4-{5-[5-fluoro-6-(2-methoxyethoxy)-1H-indazol-3-yl]-1,2-oxazol-3-yl}benzoyl)azetidine-3-carbonitrile], the IC50 amounted to 2 nM on c-Kit(V654A) and 39 nM in test [1].
`COCCOc1cc2[nH]nc(-c3cc(-c4ccc(C(=O)N5CC(S(C)(=O)=O)C5)cc4)no3)c2cc1F` [A29, 5-fluoro-3-{3-[4-(3-methanesulfonylazetidine-1-carbonyl)phenyl]-1,2-oxazol-5-yl}-6-(2-methoxyethoxy)-1H-indazole]: the IC50 against c-Kit(V654A) stood at 0.95 nM; in test [1], 390 nM.
The matching figures for `COCCOc1cc2[nH]nc(-c3cc(-c4ccc(C(=O)N5CCS(=O)(=O)CC5)cc4)no3)c2cc1F` [A30, 4-(4-{5-[5-fluoro-6-(2-methoxyethoxy)-1H-indazol-3-yl]-1,2-oxazol-3-yl}benzoyl)-1lambda6-thiomorpholine-1,1-dione]: 0.73 nM and 56 nM.
Taken in the same sequence, the figures for `COCCOc1cc2[nH]nc(-c3cc(-c4ccc(C(=O)N(C)C5CC5)cc4)no3)c2cc1F` [A31, N-cyclopropyl-4-{5-[5-fluoro-6-(2-methoxyethoxy)-1H-indazol-3-yl]-1,2-oxazol-3-yl}-N-methylbenzamide] were 1.1 nM and 35 nM.
The matching figures for `COCCOc1cc2[nH]nc(-c3cc(-c4ccc(C(=O)N5CC[C@H](F)C5)cc4)no3)c2cc1F` [A32, 5-fluoro-3-(3-{4-[(3S)-3-fluoropyrrolidine-1-carbonyl]phenyl}-1,2-oxazol-5-yl)-6-(2-methoxyethoxy)-1H-indazole]: 0.91 nM and 39 nM.
Regarding `COCCOc1cc2[nH]nc(-c3cc(-c4ccc(C(=O)N5CC(OC)C5)cc4)no3)c2cc1F` [A33, 5-fluoro-3-{3-[4-(3-methoxyazetidine-1-carbonyl)phenyl]-1,2-oxazol-5-yl}-6-(2-methoxyethoxy)-1H-indazole], the IC50 against c-Kit(V654A) is 1.3 nM; in test [1] it was 61 nM.
Taken in the same sequence, the figures for `COCCOc1cc2[nH]nc(-c3cc(-c4ccc(C(=O)N5CC(C)(O)C5)cc4)no3)c2cc1F` [A34, 1-(4-{5-[5-fluoro-6-(2-methoxyethoxy)-1H-indazol-3-yl]-1,2-oxazol-3-yl}benzoyl)-3-methylazetidin-3-ol] were 0.83 nM and 120 nM.
Consider `COCCOc1cc2[nH]nc(-c3cc(-c4ccc(C(=O)N=S(C)(C)=O)cc4)no3)c2cc1F` [A35, N-[dimethyl(oxo)-lambda6-sulfanylidene]-4-{5-[5-fluoro-6-(2-methoxyethoxy)-1H-indazol-3-yl]-1,2-oxazol-3-yl}benzamide], for which the results for the IC50 (at c-Kit(V654A); in test [1]) were 6.3 nM and 170 nM, respectively.
Consider `COCCOc1cc2[nH]nc(-c3cc(-c4ccc(C(=O)N5CCN(C)CC5)cc4)no3)c2cc1F` [A36, 5-fluoro-6-(2-methoxyethoxy)-3-{3-[4-(4-methylpiperazine-1-carbonyl)phenyl]-1,2-oxazol-5-yl}-1H-indazole], for which the IC50 was 1.2 nM against c-Kit(V654A) and 120 nM in test [1].
